From patent US12059420B2 (BRISTOL-MYERS SQUIBB COMPANY, priority 2018, dated 2024) come the findings set out here.

The target of this assay is T1, human IDO1 (Homo sapiens, UniProt P14902).
T1 construct: expressed in transfected cells
Put plainly: IDO inhibition assay in HEK293 cells stably expressing human IDO1 (kynurenine production, Ehrlich reagent, absorbance 490 nm). It is filed as cell-based. The note with it: 20 hours incubation with compound, 500 nM reference standard = 100% inhibition, read-out: IDO1 HEK Human IC50. In short, it runs like this: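 HEK293 clones stably expressing human IDO1 (10,000 cells/well, phenol red-free RPMI, 10% FBS) were treated with compound for 20 hours at 37° C. After 0.2% TCA and 30 min at 50° C., kynurenine was read with Ehrlich reagent at 490 nm. IC50 was normalised to DMSO (0%) and 500 nM reference standard (100%).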

pIC50: −log10 of the molar value.

T1 sequence (P14902 whole entry): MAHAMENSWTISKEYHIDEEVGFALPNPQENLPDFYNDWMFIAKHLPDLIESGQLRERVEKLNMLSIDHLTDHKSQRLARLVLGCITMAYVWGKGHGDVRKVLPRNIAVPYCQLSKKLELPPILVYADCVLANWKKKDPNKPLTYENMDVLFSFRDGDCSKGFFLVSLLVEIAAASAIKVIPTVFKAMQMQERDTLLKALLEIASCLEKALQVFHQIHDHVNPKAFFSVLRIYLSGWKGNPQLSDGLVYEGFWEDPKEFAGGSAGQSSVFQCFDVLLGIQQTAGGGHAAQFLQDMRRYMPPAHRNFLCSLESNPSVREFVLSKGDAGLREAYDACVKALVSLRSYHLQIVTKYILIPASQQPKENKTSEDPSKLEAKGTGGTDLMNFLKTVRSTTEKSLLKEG

Take `CC(C)CN(Cc1ccccc1)c1cc(Nc2ccncc2F)cc(-c2ccccc2-c2nnn[nH]2)n1` [Example 139, 6-(2-(1H-tetrazol-5-yl)phenyl)-N2-benzyl-N4-(3-fluoropyridin-4-yl)-N2-isobutylpyridine-2,4-diamine]: the pIC50 was 7.63.
Under `Cc1nccc(Nc2cc(-c3ccccc3-c3nnn[nH]3)nc(N(Cc3ccccc3)CC(C)C)c2)n1` [Example 140, 6-(2-(1H-tetrazol-5-yl)phenyl)-N2-benzyl-N2-isobutyl-N4-(2-methylpyrimidin-4-yl)pyridine-2,4-diamine] stands 6.85; under `CC(C)CN(Cc1ccccc1)c1cc(Nc2ncccn2)cc(-c2ccccc2-c2nnn[nH]2)n1` [Example 141, 6-(2-(1H-tetrazol-5-yl)phenyl)-N2-benzyl-N2-isobutyl-N4-(pyrimidin-2-yl)pyridine-2,4-diamine], 7.40; under `Cc1ccc(Nc2cc(-c3ccccc3-c3nnn[nH]3)nc(N(Cc3ccccc3)CC(C)C)c2)nc1` [Example 142, 6-(2-(1H-tetrazol-5-yl)phenyl)-N2-benzyl-N2-isobutyl-N4-(5-methylpyridin-2-yl)pyridine-2,4-diamine], 7.43.
Under `CC(C)CN(Cc1ccccc1)c1cc(Nc2ccc(C(N)=O)cc2)cc(-c2ccccc2-c2nnn[nH]2)n1` [Example 144, 4-((2-(2-(1H-tetrazol-5-yl)phenyl)-6-(benzyl(isobutyl)amino)pyridin-4-yl)amino)benzamide] stands 6.18; under `Cc1ccnc(Nc2cc(-c3ccccc3-c3nnn[nH]3)nc(N(Cc3ccccc3)CC(C)C)c2)n1` [Example 145, 6-(2-(1H-tetrazol-5-yl)phenyl)-N2-benzyl-N2-isobutyl-N4-(4-methylpyrimidin-2-yl)pyridine-2,4-diamine], 7.13; under `Cc1ccc(Nc2cc(-c3ccccc3-c3nnn[nH]3)nc(N(Cc3ccccc3)CC(C)C)c2)c(F)c1` [Example 147, 6-(2-(1H-tetrazol-5-yl)phenyl)-N2-benzyl-N4-(2-fluoro-4-methylphenyl)-N2-isobutylpyridine-2,4-diamine], 8.14.
As to `Cc1ccc(Nc2cc(-c3ccccc3-c3nnn[nH]3)nc(N(Cc3ccccc3)CC(C)C)c2)cc1` [Example 148, 6-(2-(1H-tetrazol-5-yl)phenyl)-N2-benzyl-N2-isobutyl-N4-(p-tolyl)pyridine-2,4-diamine], the pIC50 is 8.32.
Under `CCCc1cnc(Nc2cc(-c3ccccc3-c3nnn[nH]3)nc(N(Cc3ccccc3)CC(C)C)c2)nc1` [Example 149, 6-(2-(1H-tetrazol-5-yl)phenyl)-N2-benzyl-N2-isobutyl-N4-(5-propylpyrimidin-2-yl)pyridine-2,4-diamine] stands 7.75; under `CC(C)CN(Cc1ccccc1)c1cc(Nc2ccc(C#N)cn2)cc(-c2ccccc2-c2nnn[nH]2)n1` [Example 150, 6-((2-(2-(1H-tetrazol-5-yl)phenyl)-6-(benzyl(isobutyl)amino)pyridin-4-yl)amino)nicotinonitrile], 7.62.
For the compound `CC(C)CN(Cc1ccccc1)c1cc(Nc2nc(C(F)(F)F)ccc2F)cc(-c2ccccc2-c2nnn[nH]2)n1` [Example 151, 6-(2-(1H-tetrazol-5-yl)phenyl)-N2-benzyl-N4-(3-fluoro-6-(trifluoromethyl)pyridin-2-yl)-N2-isobutylpyridine-2,4-diamine], the pIC50 is 6.55.
Turning to `Cc1cc(F)cnc1Nc1cc(-c2ccccc2-c2nnn[nH]2)nc(N(Cc2ccccc2)CC(C)C)c1` [Example 152, 6-(2-(1H-tetrazol-5-yl)phenyl)-N2-benzyl-N4-(5-fluoro-3-methylpyridin-2-yl)-N2-isobutylpyridine-2,4-diamine], the pIC50 is 6.89.
Under `CC(C)CN(Cc1ccccc1)c1cc(Nc2ccc3ccccc3n2)cc(-c2ccccc2-c2nnn[nH]2)n1` [Example 154, 6-(2-(1H-tetrazol-5-yl)phenyl)-N2-benzyl-N2-isobutyl-N4-(quinolin-2-yl)pyridine-2,4-diamine] stands 7.27.
Under `CC(C)CN(Cc1ccccc1)c1cc(Nc2ccnc3ccnn23)cc(-c2ccccc2-c2nnn[nH]2)n1` [Example 155, 6-(2-(1H-tetrazol-5-yl)phenyl)-N2-benzyl-N2-isobutyl-N4-(pyrazolo[1,5-a]pyrimidin-7-yl)pyridine-2,4-diamine] stands 6.88.
In the case of `CC(C)CN(Cc1ccccc1)c1cc(Nc2nc3ccc(F)cc3s2)cc(-c2ccccc2-c2nnn[nH]2)n1` [Example 156, 6-(2-(1H-tetrazol-5-yl)phenyl)-N2-benzyl-N4-(6-fluorobenzo[d]thiazol-2-yl)-N2-isobutylpyridine-2,4-diamine], the pIC50 was 6.94.
Under `Cc1ccc(Nc2cc(-c3ccccc3-c3nnn[nH]3)nc(N(Cc3ccccc3)CC(C)C)c2)nn1` [Example 157, 6-(2-(1H-tetrazol-5-yl)phenyl)-N2-benzyl-N2-isobutyl-N4-(6-methylpyridazin-3-yl)pyridine-2,4-diamine] stands 6.27; under `CC(C)CN(Cc1ccccc1)c1cc(Nc2ncc(C(C)C)cn2)cc(-c2ccccc2-c2nnn[nH]2)n1` [Example 158, 6-(2-(1H-tetrazol-5-yl)phenyl)-N2-benzyl-N2-isobutyl-N4-(5-isopropylpyrimidin-2-yl)pyridine-2,4-diamine], 6.35; under `CC(C)CN(Cc1ccccc1)c1cc(Nc2ncc(C(N)=O)cc2F)cc(-c2ccccc2-c2nnn[nH]2)n1` [Example 159, 6-((2-(2-(1H-tetrazol-5-yl)phenyl)-6-(benzyl(isobutyl)amino)pyridin-4-yl)amino)-5-fluoronicotinamide], 6.56.
As to `CC(C)CN(Cc1ccccc1)c1cc(Nc2cccnc2F)cc(-c2ccccc2-c2nnn[nH]2)n1` [Example 160, 6-(2-(1H-tetrazol-5-yl)phenyl)-N2-benzyl-N4-(2-fluoropyridin-3-yl)-N2-isobutylpyridine-2,4-diamine], the negative logarithm of the IC50 (pIC50) is 7.63.
Under `Cc1nc2ccc(Nc3cc(-c4ccccc4-c4nnn[nH]4)nc(N(Cc4ccccc4)CC(C)C)c3)cc2s1` [Example 161, 6-(2-(1H-tetrazol-5-yl)phenyl)-N2-benzyl-N2-isobutyl-N4-(2-methylbenzo[d]thiazol-6-yl)pyridine-2,4-diamine] stands 8.68; under `CCc1cnc(Nc2cc(-c3ccccc3-c3nnn[nH]3)nc(N(Cc3ccccc3)CC(C)C)c2)nc1` [Example 162, 6-(2-(1H-tetrazol-5-yl)phenyl)-N2-benzyl-N4-(5-ethylpyrimidin-2-yl)-N2-isobutylpyridine-2,4-diamine], 7.58.
As for `CC(C)CN(Cc1ccccc1)c1cc(Nc2ncccc2C#N)cc(-c2ccccc2-c2nnn[nH]2)n1` [Example 163, 2-((2-(2-(1H-tetrazol-5-yl)phenyl)-6-(benzyl(isobutyl)amino)pyridin-4-yl)amino)nicotinonitrile], the pIC50 was 6.13.
On to `CC(C)CN(Cc1ccccc1)c1cc(Nc2cnc(Cl)nc2)cc(-c2ccccc2-c2nnn[nH]2)n1` [Example 164, 6-(2-(1H-tetrazol-5-yl)phenyl)-N2-benzyl-N4-(2-chloropyrimidin-5-yl)-N2-isobutylpyridine-2,4-diamine], for which the pIC50 was 8.10.
Turning to `CC(C)CN(Cc1ccccc1)c1cc(Nc2ccc3nncn3n2)cc(-c2ccccc2-c2nnn[nH]2)n1` [Example 165, 6-(2-(1H-tetrazol-5-yl)phenyl)-N4-([1,2,4]triazolo[4,3-b]pyridazin-6-yl)-N2-benzyl-N2-isobutylpyridine-2,4-diamine], the pIC50 was 5.95.
Under `CC(C)CN(Cc1ccccc1)c1cc(Nc2ccc(C(=O)O)cc2F)cc(-c2ccccc2-c2nnn[nH]2)n1` [Example 166, 4-((2-(2-(1H-tetrazol-5-yl)phenyl)-6-(benzyl(isobutyl)amino)pyridin-4-yl)amino)-3-fluorobenzoic acid] stands 5.39; under `Cc1nccnc1Nc1cc(-c2ccccc2-c2nnn[nH]2)nc(N(Cc2ccccc2)CC(C)C)c1` [Example 167, 6-(2-(1H-tetrazol-5-yl)phenyl)-N2-benzyl-N2-isobutyl-N4-(3-methylpyrazin-2-yl)pyridine-2,4-diamine], 6.69; under `Cc1cccnc1Nc1cc(-c2ccccc2-c2nnn[nH]2)nc(N(Cc2ccccc2)CC(C)C)c1` [Example 168, 6-(2-(1H-tetrazol-5-yl)phenyl)-N2-benzyl-N2-isobutyl-N4-(3-methylpyridin-2-yl)pyridine-2,4-diamine], 6.41.
In the case of `CC(C)CN(Cc1ccccc1)c1cc(Nc2ccc(F)c(Cl)c2)cc(-c2ccccc2-c2nnn[nH]2)n1` [Example 169, 6-(2-(1H-tetrazol-5-yl)phenyl)-N2-benzyl-N4-(3-chloro-4-fluorophenyl)-N2-isobutylpyridine-2,4-diamine], the negative logarithm of the IC50 (pIC50) was 7.95.
Under `CC(C)CN(Cc1ccccc1)c1cc(Nc2ccc(F)cc2)cc(-c2ccccc2-c2nnn[nH]2)n1` [Example 170, 6-(2-(1H-tetrazol-5-yl)phenyl)-N2-benzyl-N4-(4-fluorophenyl)-N2-isobutylpyridine-2,4-diamine] stands 8.31; under `CC(C)CN(Cc1ccccc1)c1cc(Nc2ccc(Cl)cc2)cc(-c2ccccc2-c2nnn[nH]2)n1` [Example 171, 6-(2-(1H-tetrazol-5-yl)phenyl)-N2-benzyl-N4-(4-chlorophenyl)-N2-isobutylpyridine-2,4-diamine], 8.96.
On to `COc1cnc(Nc2cc(-c3ccccc3-c3nnn[nH]3)nc(N(Cc3ccccc3)CC(C)C)c2)nc1` [Example 172, 6-(2-(1H-tetrazol-5-yl)phenyl)-N2-benzyl-N2-isobutyl-N4-(5-methoxypyrimidin-2-yl)pyridine-2,4-diamine], for which the pIC50 was 7.84.
Under `CC(C)CN(Cc1ccccc1)c1cc(Nc2ncnc3[nH]ccc23)cc(-c2ccccc2-c2nnn[nH]2)n1` [Example 173, 6-(2-(1H-tetrazol-5-yl)phenyl)-N2-benzyl-N2-isobutyl-N4-(7H-pyrrolo[2,3-d]pyrimidin-4-yl)pyridine-2,4-diamine] stands 6.59.
